From patent US11325892B2, “Compounds and methods for treating cancer” (Mayo Foundation for Medical Education and Research, priority 2014, dated 2022)
Read-outs that look alike come from different tables or passages of the source. One block for each compound: values may come before it.

Legend:
Format in all cases: cell-based
SNU449 HCC cells = experiment: SNU449 cell proliferation (cellular DNA, Hoechst); details: Homo sapiens
Experimental: SNU449 HCC cells were plated at 20,000 cells/well in 12-well plates. The next day, cells were treated with SSI-4, sorafenib or sorafenib plus SSI-4 at the indicated doses. […] On day 5, cells were frozen, DNA isolated and quantitated by […] (Hoechst reagent) in a spectrophotometer. Cellular DNA is directly proportional to cell number and is commonly used as a measure of cell number. All doses are in replicates of three with the mean +/−standard deviation determined.

[1] = tested on: HK2, a transformed renal epithelial cell line; experiment: High-throughput proliferative screen, non-cancerous cells
Experimental: (§1) Cells were seeded at 5,000 cells/well in clear-bottom 96-well plates in triplicate in Maintenance Media. Drug treatment was applied at a concentration of 1:1000 in reduced serum (3%) Maintenance Media. After 72 hours, cells were washed with PBS, and stored at −80° C. prior to analysis using CyQuant® Proliferation Analysis Kit (Invitrogen) as per manufacturers' protocol for relative fluorescence units. Alternatively, cells were plated 2×10^5/well in 12-well plates (Midwest Scientific) in triplicate prior to drug treatment. After 120 hour treatment, cell number was established using a Coulter Particle Counter (Beckman). Or, cells were plated (0.5 or 1×10^5/well) in 24-well plates (Midwest Scientific), 3×. After 72 hour treatment, cell number established using Coulter Particle Counter (Beckman). Oleic acid-albumin (Sigma Aldrich) was added to media at 5 μM, and was applied adjuvant to drug treatment. Drug stocks were prepared in DMSO (Sigma) at 1000×. EC50 dosing per cell line was calculated using CalcuSyn® analytical software.
In order to identify potential SCD1 inhibitors, a high-throughput proliferative-based screening method was used, with four ccRCC cell lines including A498, ACHN, Caki1, and Caki2. The SCD1 inhibitor MF-438 was included as a positive control. Known compounds ChemBL375265 (Liu G, Lynch J K, Freeman J, et al. Discovery of potent, selective, orally bioavailable stearoyl-CoA desaturase 1 inhibitors. Journal of medicinal chemistry. Jun. 28, 2007; 50(13): 3086-3100) (SetA.100) and SAR707 (Voss M D, Zoller G, Matter H, et al. Discovery and pharmacological characterization of SAR707 as novel and selective small molecule inhibitor of stearoyl-CoA desaturase (SCD1). European journal of pharmacology. May 5, 2013; 707(1-3): 140-146) (TC03.100) were included as single-blinded positive controls, and are indicated with an asterisk (*). […]

[2] = tested on: A498, ACHN, and Caki1 cell lines; experiment: Oleic acid (OA) rescue assay of cell proliferation in ccRCC cells; details: EC50 dose of compound with OA (5 μg/μL); all three cell lines
Experimental: as §1
A498, ACHN, and Caki1 cell lines were treated with the EC50 dose of each MF-438, ChemBL375265, SSI-1, SSI-4, SSI-3, and SSI-2 with or without concomitant application of OA (5 μg/μL). […] Representative images of A498 cell morphology and density treated with each compound +/−OA are shown in (FIG. 2B).

[3] = tested on: ATF6-UPRE luciferase reporter in A498 and ACHN cells; experiment: ATF6-UPRE luciferase reporter assay; details: EC50 dose, 24H; both cell lines A498 and ACHN; completely blocked with OA
Experimental: A498 and ACHN cells were transiently transfected with p5×ATF6-GL3 UPR luciferase reporter (Addgene plasmid#11976) and pRL-CMV-renilla (Promega) using Lipofectamine 2000 (Invitrogen). Cells were treated as indicated for 24H, prior to collection and analysis using Promega Dual Luciferase assay kit per manufacturer's specifications. Luciferase activity was measured using Veritas Luminometer (Promega); and results are reported as relative luminescence.
(§2) Activating transcription factor 6 (ATF6) is a key regulator of the unfolded protein response (UPR) that recognizes unfolded protein response elements (UPRE) in the promoter regions of several key mediators of the ER stress response, initiating their transcription (Wang Y, Shen J, Arenzana N, Tirasophon W, Kaufman R J, Prywes R. Activation of ATF6 and an ATF6 DNA binding site by the endoplasmic reticulum stress response. J Biol Chem. Sep. 1, 2000; 275(35):27013-27020). A498 and ACHN transfected with an ATF6-UPRE luciferase reporter were treated with the EC50 doses of ChemBL375265, SSI-1, SSI-4, SSI-3, and SSI-2 with or without OA supplementation were evaluated in order to determine whether the identified compounds could recapitulate activation of the UPR. […] Upregulation of the UPR markers BiP (heat shock 70 kDa protein, GRP78) and CHOP (damage inducible transcript 3, DDIT3) was evaluated by Western blot in A498 and ACHN cells treated with the EC50 doses of ChemBL375265, SSI-1, SSI-4, SSI-3, and SSI-2 with or without OA supplementation.

kidney cancer cells = experiment: Combination with mTor inhibitor temsirolimus, cell proliferation; details: different concentrations with 0, 0.1, 1, and 10 nM temsirolimus
[4] = tested on: BiP and CHOP expression in A498 and ACHN cells; experiment: Western blot for UPR markers BiP and CHOP; details: EC50 dose; both cell lines; blocked with concomitant OA treatment
Experimental: Protein extraction and western blot analysis was performed as previously described (Copland J A, Marlow L A, Kurakata S, et al. Novel high-affinity PPARgamma agonist alone and in combination with paclitaxel inhibits human anaplastic thyroid carcinoma tumor growth via p21WAF1/CIP1. Oncogene. Apr 13 2006; 25(16):2304-2317). Primary antibodies included SCD1 (Sigma-Aldrich, #HPA012107), BiP (Cell Signaling, #3183), CHOP (Cell Signaling, #2895), sXBP1(Santa Cruz Biotechnology, #sc-7160), PARP(Cell Signaling, #9542), and β-actin (Sigma-Aldrich, #A5441).
as §2

IC50 (SNU449 HCC cells; SNU-449, SNU449, read-out: IC50 (dose at which 50% of cell proliferation is inhibited)): 3.2 nM
Compound: CNC(=O)c1ccnc(NC(=O)N2CCC(Oc3ccccc3Cl)CC2)c1 [SSI-4, 2-{[4-(2-Chlorophenoxy)piperidine-1-carbonyl]amino}-N-methylpyridine-4-carboxamide]
reduction in cell proliferation [1]: approximately 20% | rescue of cell proliferation with OA [2]: Near total rescue of cell proliferation | luciferase activity [3]: significant upregulation of luciferase activity | kidney cancer cell proliferation (kidney cancer cells): reduced kidney cancer cell proliferation | BiP and CHOP expression [4]: strongly induced both BiP and CHOP expression

Compound: CNC(=O)c1cc(Oc2ccc(NC(=O)Nc3ccc(Cl)c(C(F)(F)F)c3)cc2)ccn1 [sorafenib]
IC50 (SNU449 HCC cells; SNU-449, read-out: IC50 (dose at which 50% of cell proliferation is inhibited)): 2000 nM
